Laboratory results taken from patent publication US10786485B1, “Charged ion channel blockers and methods for use” (Nocion Therapeutics, Inc., priority 2019, dated 2020).
Structures can show the parent of a compound that is named as a salt.

Tests used:
NaV1.7 [1] = biological target: T1, NaV1.7 (Homo sapiens, UniProt Q15858); assay: Whole cell patch clamp, internal block of Nav1.7 current; assay type: cell-based; settings: test concentration of 10 μM; compound dissolved in internal solution; 5 Hz stimulation; read-out: Nav1.7 intracellular inhibition
T1 construct: expressed in transfected cells; host or cells: tetracycline-inducible cell line kept under hygromycin and blasticidin
Procedure: NaV1.7 was expressed upon induction with tetracycline. Cells were cultured in DMEM containing 10% dialyzed Fetal Bovine Serum (VWR, Radnor, Pa.), 1% Glutamax (VWR, Radnor, Pa.), 1% Penicillin-Streptomycin (VWR, Radnor, Pa.), 100 mg/L Hygromycin (Thermo Fisher Scientific, Waltham, Mass. and 5 mg/L Blasticidin (Alfa Aesar, Haverhill, Mass.). Cells were grown and maintained at 37° C. in a humidified environment containing 10% CO2 in air. Cells were detached from the culture flask for passage and harvested using 0.05% Trypsin-EDTA (Thermo Fisher Scientific, Waltham, Mass.). To induce NaV1.7, cells were induced with tetracycline (0.1-1 μg/mL, IBI Scientific, Peosta, Iowa) the day before recording and plated onto 24-well plates. […] For one 24-well plate, 2 mL of cell suspension was mixed with 23 mL of fresh growth media and 0.1-1 μg/mL tetracycline added. 1 ml of mixed media with cells was then added to each well of a 24-well plate, with a 12 mm coverslip already placed in the bottom of the well. Cells were then incubated in 37° C. and 10% CO2 overnight. The intracellular solution contained the following (in mM) CsCl 135, NaCl 10, EGTA 10, HEPES 10, MgCl2 2, adjusted to pH 7.2 with CsOH. The external solution was a normal Ringer solution containing (in mM) NaCl 155, HEPES 10, glucose 10, KCl 3.5, CaCl2 1.5, MgCl2 1 adjusted to pH 7.4 with NaOH. CsCl is from Alfa Aesar, Haverhill, Mass. All other chemicals are from Sigma-Aldrich, St. Louis, Mo. In order to test the degree of internal block by test compounds the compounds were dissolved in internal solution at the indicated test concentration. […] In order to test the degree of external block by test compounds the compounds were dissolved in external solution at the indicated test concentration. 18-24 hours after cells were induced with tetracycline, coverslips were placed into a chamber filled with Normal Ringer solution at room temperature and the chamber placed on a microscope. Pipettes were pulled from borosilicate glass on a P97 puller (Sutter Instrument, Novato, Calif.) and polished with a MF-830 Microforge (Narishige International USA, Inc, Amityville, N.Y.) to have a resistance of 1.5-2.5 MΩ when filled with CsCl internal solution at room temperature. Healthy cells (those that are round and translucent with no visible blemishes) were chosen for seal formation. A seal was formed between the pipette and the cell, and a brief pulse of suction was used to “break in” and establish the whole-cell configuration. The membrane potential was held at −100 mV before the voltage protocol began. Only cells with series resistance between 1.5-5 MΩ were retained for analysis. The voltage protocol was as follows: Cells were held at −100 mV for 12 ms followed by a hyperpolarizing step to −105 mV for 12 ms to monitor the leak. Cells were then stepped back to −100 mV for 40 ms. Cells were then depolarized to −20 mV for 10 ms and then returned to −100 mV for 26 ms (The FIGURE). Once the recording was started, the voltage protocol was run at 30 second intervals for 5 minutes to get a stable baseline. […] Currents were recorded using PatchMaster software with Heka EPC10 (HEKA Electronics, Lambrecht, Germany). […] The data was plotted using the Patchmaster software (HEKA Electronics, Lambrecht, Germany) and analyzed by plotting the minimum current during the voltage step to −20 mV (peak inward current) as a function of time. […]

NaV1.7 [2] = biological target: T1, NaV1.7; assay: Whole cell patch clamp, external block of Nav1.7 current; assay type: cell-based; settings: test concentration of 30 μM; compound in external solution for 5 minutes; 5 Hz stimulation; read-out: Nav1.7 extracellular inhibition
Procedure: NaV1.7 was expressed upon induction with tetracycline. Cells were cultured in DMEM containing 10% dialyzed Fetal Bovine Serum (VWR, Radnor, Pa.), 1% Glutamax (VWR, Radnor, Pa.), 1% Penicillin-Streptomycin (VWR, Radnor, Pa.), 100 mg/L Hygromycin (Thermo Fisher Scientific, Waltham, Mass. and 5 mg/L Blasticidin (Alfa Aesar, Haverhill, Mass.). Cells were grown and maintained at 37° C. in a humidified environment containing 10% CO2 in air. Cells were detached from the culture flask for passage and harvested using 0.05% Trypsin-EDTA (Thermo Fisher Scientific, Waltham, Mass.). To induce NaV1.7, cells were induced with tetracycline (0.1-1 μg/mL, IBI Scientific, Peosta, Iowa) the day before recording and plated onto 24-well plates. […] For one 24-well plate, 2 mL of cell suspension was mixed with 23 mL of fresh growth media and 0.1-1 μg/mL tetracycline added. 1 ml of mixed media with cells was then added to each well of a 24-well plate, with a 12 mm coverslip already placed in the bottom of the well. Cells were then incubated in 37° C. and 10% CO2 overnight. The intracellular solution contained the following (in mM) CsCl 135, NaCl 10, EGTA 10, HEPES 10, MgCl2 2, adjusted to pH 7.2 with CsOH. The external solution was a normal Ringer solution containing (in mM) NaCl 155, HEPES 10, glucose 10, KCl 3.5, CaCl2 1.5, MgCl2 1 adjusted to pH 7.4 with NaOH. CsCl is from Alfa Aesar, Haverhill, Mass. All other chemicals are from Sigma-Aldrich, St. Louis, Mo. In order to test the degree of internal block by test compounds the compounds were dissolved in internal solution at the indicated test concentration. […] In order to test the degree of external block by test compounds the compounds were dissolved in external solution at the indicated test concentration. 18-24 hours after cells were induced with tetracycline, coverslips were placed into a chamber filled with Normal Ringer solution at room temperature and the chamber placed on a microscope. Pipettes were pulled from borosilicate glass on a P97 puller (Sutter Instrument, Novato, Calif.) and polished with a MF-830 Microforge (Narishige International USA, Inc, Amityville, N.Y.) to have a resistance of 1.5-2.5 MΩ when filled with CsCl internal solution at room temperature. Healthy cells (those that are round and translucent with no visible blemishes) were chosen for seal formation. A seal was formed between the pipette and the cell, and a brief pulse of suction was used to “break in” and establish the whole-cell configuration. The membrane potential was held at −100 mV before the voltage protocol began. Only cells with series resistance between 1.5-5 MΩ were retained for analysis. The voltage protocol was as follows: Cells were held at −100 mV for 12 ms followed by a hyperpolarizing step to −105 mV for 12 ms to monitor the leak. Cells were then stepped back to −100 mV for 40 ms. Cells were then depolarized to −20 mV for 10 ms and then returned to −100 mV for 26 ms (The FIGURE). Once the recording was started, the voltage protocol was run at 30 second intervals for 5 minutes to get a stable baseline. This is followed by 5 Hz stimulation of the same voltage protocol run until the end of experiment. […] Currents were recorded using PatchMaster software with Heka EPC10 (HEKA Electronics, Lambrecht, Germany). […] The data was plotted using the Patchmaster software (HEKA Electronics, Lambrecht, Germany) and analyzed by plotting the minimum current during the voltage step to −20 mV (peak inward current) as a function of time. […]

[3] = PAMPA membrane permeability assay; assay type: in vitro ADME; settings: GIT lipid, buffer pH 7.4, incubated 4 hours
Procedure: The PAMPA assay (pION, Inc., Woburn Mass.) was used to determine the ability of compounds of the invention to cross an artificial lipid membrane by passive diffusion. Test compounds were dissolved in DMSO (10 mM) and diluted 200-fold in buffer (pION Inc., pH 7.4) to provide 50 uM stock solutions. Buffer (150 μL) was added to a UV blank plate and stock solutions (150 μL) were transferred to a UV reference plate. The blank and reference spectrum were read using a spectrophotometer. Stock solutions (200 μL) were added to the donor plate of the PAMPA sandwich plate and an accept plate painted with GIT lipid (pION Inc, 5 μL) was placed on top. Buffer (200 μL) was added to the acceptor plate and the PAMPA sandwich plate was incubated for 4 hours. Aliquots (150 μL) from the acceptor plate were added to a UV plate and read as acceptor spectrum. Aliquots (150 μL) of the donor solutions were added to a UV analysis plate and read as donor spectrum. The permeability coefficient of test compounds was calculated using PAMPA Explorer™ software (version 3.5.0.4) based on the AUC of the reference plate, the donor plate, and the acceptor plate.

T1 sequence (Q15858 whole entry): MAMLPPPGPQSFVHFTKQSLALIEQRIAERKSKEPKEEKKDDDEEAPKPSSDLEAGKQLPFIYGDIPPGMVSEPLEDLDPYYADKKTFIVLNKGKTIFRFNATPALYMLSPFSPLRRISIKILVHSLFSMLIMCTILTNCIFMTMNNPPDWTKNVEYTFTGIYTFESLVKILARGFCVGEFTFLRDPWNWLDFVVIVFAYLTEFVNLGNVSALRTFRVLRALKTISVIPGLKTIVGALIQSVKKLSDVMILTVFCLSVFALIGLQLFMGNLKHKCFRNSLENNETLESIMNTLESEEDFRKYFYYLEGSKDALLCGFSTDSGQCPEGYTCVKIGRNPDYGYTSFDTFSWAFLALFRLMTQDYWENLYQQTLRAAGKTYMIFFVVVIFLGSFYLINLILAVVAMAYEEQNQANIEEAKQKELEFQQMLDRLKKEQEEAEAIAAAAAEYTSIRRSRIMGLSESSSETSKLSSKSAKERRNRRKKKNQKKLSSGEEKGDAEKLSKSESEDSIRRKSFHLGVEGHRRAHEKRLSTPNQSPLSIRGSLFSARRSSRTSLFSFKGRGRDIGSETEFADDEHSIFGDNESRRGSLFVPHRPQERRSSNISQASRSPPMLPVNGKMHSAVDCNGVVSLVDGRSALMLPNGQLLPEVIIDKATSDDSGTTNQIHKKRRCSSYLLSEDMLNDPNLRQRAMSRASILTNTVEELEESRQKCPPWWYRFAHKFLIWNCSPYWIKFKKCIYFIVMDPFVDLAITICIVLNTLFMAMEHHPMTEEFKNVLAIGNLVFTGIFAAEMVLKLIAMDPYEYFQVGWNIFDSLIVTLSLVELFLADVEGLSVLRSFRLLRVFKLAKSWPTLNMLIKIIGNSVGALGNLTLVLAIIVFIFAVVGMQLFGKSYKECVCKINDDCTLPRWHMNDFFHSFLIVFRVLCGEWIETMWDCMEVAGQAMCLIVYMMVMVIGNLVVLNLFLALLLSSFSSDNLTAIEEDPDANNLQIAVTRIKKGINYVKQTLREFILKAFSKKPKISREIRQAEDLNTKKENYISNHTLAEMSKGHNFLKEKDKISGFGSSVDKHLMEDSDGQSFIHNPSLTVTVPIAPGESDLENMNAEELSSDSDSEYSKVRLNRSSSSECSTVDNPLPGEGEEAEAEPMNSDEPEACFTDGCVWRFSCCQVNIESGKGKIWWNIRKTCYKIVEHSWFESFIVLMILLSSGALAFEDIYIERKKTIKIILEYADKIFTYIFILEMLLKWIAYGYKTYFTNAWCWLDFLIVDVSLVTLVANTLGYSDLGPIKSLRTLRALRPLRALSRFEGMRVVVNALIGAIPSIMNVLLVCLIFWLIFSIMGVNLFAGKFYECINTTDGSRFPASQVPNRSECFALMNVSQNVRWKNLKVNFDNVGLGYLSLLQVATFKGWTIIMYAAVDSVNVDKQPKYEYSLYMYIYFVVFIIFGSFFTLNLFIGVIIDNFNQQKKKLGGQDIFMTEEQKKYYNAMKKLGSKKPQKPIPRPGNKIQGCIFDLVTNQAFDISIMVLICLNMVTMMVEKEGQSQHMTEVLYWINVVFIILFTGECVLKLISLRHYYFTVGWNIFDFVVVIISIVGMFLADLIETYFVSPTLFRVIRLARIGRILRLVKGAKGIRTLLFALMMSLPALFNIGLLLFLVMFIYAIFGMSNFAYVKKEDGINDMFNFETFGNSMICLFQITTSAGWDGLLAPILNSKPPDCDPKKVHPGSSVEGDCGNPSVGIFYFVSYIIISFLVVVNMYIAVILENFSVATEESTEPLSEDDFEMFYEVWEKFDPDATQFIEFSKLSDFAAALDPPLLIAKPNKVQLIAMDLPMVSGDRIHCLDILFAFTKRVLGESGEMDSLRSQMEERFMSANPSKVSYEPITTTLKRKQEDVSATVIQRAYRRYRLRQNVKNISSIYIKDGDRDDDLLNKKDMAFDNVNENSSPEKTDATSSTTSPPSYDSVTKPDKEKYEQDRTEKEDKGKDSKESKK

Row | inhibition at 10 µM (NaV1.7 [1]) | inhibition at 30 µM (NaV1.7 [2]) | Papp at 4 h, 50 µM [3] | Structure (SMILES)
1 | > 65% | < 25% |  | Cc1cn(C)[n+](CC(=O)Nc2c(C)cccc2C)c1 [1′A, 2-(2-((2,6-dimethylphenyl)amino)-2-oxoethyl)-1,4-dimethyl-1H-pyrazol-2-ium bromide]
2 | > 65% | < 25% | ≤ 1.2 ×10⁻⁶ cm/s | Cc1cccc(C)c1NC(=O)C[n+]1cccn1CC(C)C.[Br-] [Compound 2′A, 2-(2-((2,6-dimethylphenyl)amino)-2-oxoethyl)-1-isobutyl-1H-pyrazol-2-ium bromide]
3 | > 65% | < 25% | ≤ 1.2 ×10⁻⁶ cm/s | Cc1cccc(C)c1NC(=O)C[n+]1cccn1C1CCCCC1.[Br-] [Compound 3′A, 1-cyclohexyl-2-(2-((2,6-dimethylphenyl)amino)-2-oxoethyl)-1H-pyrazol-2-ium bromide]
4 | > 65% | < 25% | ≤ 1.2 ×10⁻⁶ cm/s | CCNC(=O)Cn1ccc[n+]1CC(=O)Nc1c(C)cccc1C.[Br-] [Compound 5′A, 2-(2-((2,6-dimethylphenyl)amino)-2-oxoethyl)-1-(2-(ethylamino)-2-oxoethyl)-1H-pyrazol-2-ium bromide]
5 | > 65% | < 25% |  | Cc1cccc(C)c1NC(=O)C[n+]1cccn1-c1ccccc1 [4′A, 2-(2-((2,6-dimethylphenyl)amino)-2-oxoethyl)-1-phenyl-1H-pyrazol-2-ium Formate]
